Laboratory results taken from ChEMBL document CHEMBL5678818, “Discovery of potent SOS1 inhibitors that block RAS activation via disruption of the RAS-SOS1 interaction” (Proc Natl Acad Sci U S A, 2019).

Assays:
[1] = target: Protein kinase C theta type (Homo sapiens) (UniProt Q04759); experiment: Inhibition of PRKCQ (unknown origin) assessed as residual activity at 100 nM by KINOMEscan analysis relative to control
[2] = target: T1, Cyclin-G-associated kinase (Homo sapiens) (UniProt O14976); experiment: Inhibition of GAK (unknown origin) assessed as residual activity at 100 nM by KINOMEscan analysis relative to control
T1 sequence (whole entry): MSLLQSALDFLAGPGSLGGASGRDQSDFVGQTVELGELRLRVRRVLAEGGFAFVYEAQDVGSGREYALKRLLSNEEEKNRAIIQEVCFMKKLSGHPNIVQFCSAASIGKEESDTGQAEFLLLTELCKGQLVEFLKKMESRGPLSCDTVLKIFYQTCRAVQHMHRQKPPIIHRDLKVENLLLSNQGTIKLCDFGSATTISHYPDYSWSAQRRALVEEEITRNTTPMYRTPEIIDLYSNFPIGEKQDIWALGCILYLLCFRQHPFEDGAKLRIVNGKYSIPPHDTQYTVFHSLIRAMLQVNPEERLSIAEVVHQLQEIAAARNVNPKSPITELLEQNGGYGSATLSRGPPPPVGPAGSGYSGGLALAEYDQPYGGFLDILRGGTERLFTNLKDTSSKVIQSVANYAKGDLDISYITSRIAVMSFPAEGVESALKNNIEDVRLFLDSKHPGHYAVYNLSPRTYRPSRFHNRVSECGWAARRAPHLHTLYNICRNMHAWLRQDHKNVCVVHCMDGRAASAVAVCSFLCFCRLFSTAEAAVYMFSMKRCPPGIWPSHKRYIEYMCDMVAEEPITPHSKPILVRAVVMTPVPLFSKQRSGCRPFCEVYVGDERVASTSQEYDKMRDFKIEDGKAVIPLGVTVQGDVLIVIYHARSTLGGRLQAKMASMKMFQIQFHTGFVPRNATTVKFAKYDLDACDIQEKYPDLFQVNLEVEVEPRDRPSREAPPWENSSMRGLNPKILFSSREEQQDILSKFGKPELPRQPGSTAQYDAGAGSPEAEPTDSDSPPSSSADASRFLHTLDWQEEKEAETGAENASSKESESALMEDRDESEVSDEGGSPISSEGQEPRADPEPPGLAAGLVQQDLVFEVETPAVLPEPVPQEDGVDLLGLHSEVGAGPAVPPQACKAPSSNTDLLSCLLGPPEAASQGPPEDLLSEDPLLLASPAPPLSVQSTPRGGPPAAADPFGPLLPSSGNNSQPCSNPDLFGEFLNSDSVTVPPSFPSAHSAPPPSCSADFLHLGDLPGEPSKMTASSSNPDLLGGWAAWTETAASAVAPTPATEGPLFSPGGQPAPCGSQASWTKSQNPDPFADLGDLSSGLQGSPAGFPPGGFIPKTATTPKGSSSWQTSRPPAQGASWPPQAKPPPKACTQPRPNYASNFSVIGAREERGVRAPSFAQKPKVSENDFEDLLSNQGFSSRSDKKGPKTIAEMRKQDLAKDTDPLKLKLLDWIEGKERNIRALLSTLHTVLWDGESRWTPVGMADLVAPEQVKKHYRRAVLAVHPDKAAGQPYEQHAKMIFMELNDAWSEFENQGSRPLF

[3] = target: RAC-beta serine/threonine-protein kinase (Homo sapiens) (UniProt P31751); experiment: Inhibition of AKT2 (unknown origin) assessed as residual activity at 100 nM by KINOMEscan analysis relative to control
[4] = target: T2, Phosphorylase b kinase gamma catalytic chain, liver/testis isoform (Homo sapiens) (UniProt P15735); experiment: Inhibition of PHKG2 (unknown origin) assessed as residual activity at 100 nM by KINOMEscan analysis relative to control
T2 sequence (whole entry): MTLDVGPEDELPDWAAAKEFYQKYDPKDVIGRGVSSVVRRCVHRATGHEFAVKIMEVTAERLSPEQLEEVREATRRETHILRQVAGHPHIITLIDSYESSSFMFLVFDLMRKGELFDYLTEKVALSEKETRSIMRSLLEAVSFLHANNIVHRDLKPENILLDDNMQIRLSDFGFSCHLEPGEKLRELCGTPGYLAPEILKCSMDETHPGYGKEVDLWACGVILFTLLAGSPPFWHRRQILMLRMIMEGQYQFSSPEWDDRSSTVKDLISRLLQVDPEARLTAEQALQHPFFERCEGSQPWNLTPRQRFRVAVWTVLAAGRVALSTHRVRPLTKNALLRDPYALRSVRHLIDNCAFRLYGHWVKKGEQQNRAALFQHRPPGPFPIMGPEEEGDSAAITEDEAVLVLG

[5] = target: Serine/threonine-protein kinase PAK 3 (Homo sapiens) (UniProt O75914); experiment: Inhibition of PAK3 (unknown origin) assessed as residual activity at 100 nM by KINOMEscan analysis relative to control
[6] = target: T3, Myosin light chain kinase family member 4 (Homo sapiens) (UniProt Q86YV6); experiment: Inhibition of MYLK4 (unknown origin) assessed as residual activity at 100 nM by KINOMEscan analysis relative to control
T3 sequence (whole entry): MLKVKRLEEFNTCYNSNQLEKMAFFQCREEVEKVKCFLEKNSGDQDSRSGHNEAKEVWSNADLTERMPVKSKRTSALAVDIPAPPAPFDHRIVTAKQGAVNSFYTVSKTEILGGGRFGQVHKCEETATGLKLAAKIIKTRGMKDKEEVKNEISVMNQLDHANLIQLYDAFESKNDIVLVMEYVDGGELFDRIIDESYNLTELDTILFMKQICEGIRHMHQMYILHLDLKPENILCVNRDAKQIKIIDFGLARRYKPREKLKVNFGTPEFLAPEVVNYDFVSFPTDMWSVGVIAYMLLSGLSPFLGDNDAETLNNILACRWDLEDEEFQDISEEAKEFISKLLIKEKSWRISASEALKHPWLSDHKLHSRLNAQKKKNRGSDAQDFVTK

Protein kinase C theta type (Homo sapiens), sequence (Q04759 whole entry, looked up): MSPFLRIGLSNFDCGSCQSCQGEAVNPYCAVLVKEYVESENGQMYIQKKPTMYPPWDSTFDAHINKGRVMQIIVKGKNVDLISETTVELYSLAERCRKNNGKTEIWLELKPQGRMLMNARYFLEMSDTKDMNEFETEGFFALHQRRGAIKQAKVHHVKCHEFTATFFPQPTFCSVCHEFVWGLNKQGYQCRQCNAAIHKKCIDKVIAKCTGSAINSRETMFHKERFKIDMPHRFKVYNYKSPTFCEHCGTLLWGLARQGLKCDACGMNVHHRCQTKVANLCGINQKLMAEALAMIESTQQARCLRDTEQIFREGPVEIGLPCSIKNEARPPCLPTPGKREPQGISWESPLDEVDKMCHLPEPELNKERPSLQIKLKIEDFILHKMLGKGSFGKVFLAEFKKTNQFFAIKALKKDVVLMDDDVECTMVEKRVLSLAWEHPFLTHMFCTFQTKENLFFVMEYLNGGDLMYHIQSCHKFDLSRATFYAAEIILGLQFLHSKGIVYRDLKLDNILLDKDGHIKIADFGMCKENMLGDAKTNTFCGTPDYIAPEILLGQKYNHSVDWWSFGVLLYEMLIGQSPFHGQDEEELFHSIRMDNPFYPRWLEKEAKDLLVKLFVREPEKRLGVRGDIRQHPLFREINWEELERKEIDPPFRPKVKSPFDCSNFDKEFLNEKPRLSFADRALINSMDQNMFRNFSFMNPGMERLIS
RAC-beta serine/threonine-protein kinase (Homo sapiens), sequence (P31751 whole entry, canonical isoform): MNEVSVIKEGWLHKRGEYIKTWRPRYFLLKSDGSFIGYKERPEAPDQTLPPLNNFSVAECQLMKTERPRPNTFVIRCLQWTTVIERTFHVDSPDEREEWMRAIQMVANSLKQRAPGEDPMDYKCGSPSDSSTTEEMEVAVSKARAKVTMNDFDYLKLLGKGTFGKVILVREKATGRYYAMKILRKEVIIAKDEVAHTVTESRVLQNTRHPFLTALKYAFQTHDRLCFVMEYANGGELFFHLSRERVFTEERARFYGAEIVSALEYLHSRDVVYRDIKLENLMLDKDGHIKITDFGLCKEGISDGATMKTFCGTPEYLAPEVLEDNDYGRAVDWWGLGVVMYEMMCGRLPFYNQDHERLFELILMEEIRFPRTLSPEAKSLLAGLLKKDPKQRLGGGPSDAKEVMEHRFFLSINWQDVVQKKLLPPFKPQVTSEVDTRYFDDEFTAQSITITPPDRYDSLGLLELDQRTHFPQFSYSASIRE
Serine/threonine-protein kinase PAK 3 (Homo sapiens), sequence (O75914 whole entry, looked up): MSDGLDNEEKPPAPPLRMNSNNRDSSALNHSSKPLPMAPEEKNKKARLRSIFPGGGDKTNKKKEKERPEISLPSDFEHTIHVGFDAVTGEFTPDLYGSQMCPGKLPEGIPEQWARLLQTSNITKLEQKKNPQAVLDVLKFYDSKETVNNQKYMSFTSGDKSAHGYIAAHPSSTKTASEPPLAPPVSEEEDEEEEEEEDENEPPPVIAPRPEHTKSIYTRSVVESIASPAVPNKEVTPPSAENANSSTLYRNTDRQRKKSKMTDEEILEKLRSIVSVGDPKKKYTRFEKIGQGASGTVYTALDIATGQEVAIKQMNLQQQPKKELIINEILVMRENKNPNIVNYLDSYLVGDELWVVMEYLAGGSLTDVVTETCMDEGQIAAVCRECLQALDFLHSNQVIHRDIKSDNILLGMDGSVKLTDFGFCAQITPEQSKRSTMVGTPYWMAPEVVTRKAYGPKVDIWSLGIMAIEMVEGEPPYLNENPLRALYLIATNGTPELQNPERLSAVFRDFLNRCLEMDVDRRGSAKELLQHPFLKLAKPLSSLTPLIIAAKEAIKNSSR

## COc1cc2ncnc(N[C@H](C)c3cccc4ccccc34)c2cc1OC
[1]
  Activity: 100%
[2]
  Activity: 100%
[3]
  Activity: 88%
[4]
  Activity: 100%
[5]
  Activity: 74%
[6]
  Activity: 99%
